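1) Cells in 96-well plates. 2) Compound, 48 h, 5 concentrations. 3) Linear interpolation between surrounding doses. 4) Unreached endpoint = highest concentration. TGI marks complete inhibition of growth.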
Assays:
Experiment in all cases: NCI anticancer screen, dose series, 48 h
HCT-116 colon = test system: HCT-116 colon
K-562 leukemia = test system: K-562 leukemia
MCF7 breast = test system: MCF7 breast
SN12C renal = test system: SN12C renal
MALME-3M melanoma = test system: MALME-3M melanoma
SR leukemia = test system: SR leukemia
CCRF-CEM leukemia = test system: CCRF-CEM leukemia
OVCAR-3 ovarian = test system: OVCAR-3 ovarian
PC-3 prostate = test system: PC-3 prostate
HOP-92 NSCLC = test system: HOP-92 NSCLC
IGROV1 ovarian = test system: IGROV1 ovarian
COLO 205 colon = test system: COLO 205 colon
HS 578T breast = test system: HS 578T breast
KM12 colon = test system: KM12 colon
HCC-2998 colon = test system: HCC-2998 colon
NCI/ADR-RES ovarian = test system: NCI/ADR-RES ovarian
SF-295 CNS = test system: SF-295 CNS
SNB-19 CNS = test system: SNB-19 CNS
SK-OV-3 ovarian = test system: SK-OV-3 ovarian
TK-10 renal = test system: TK-10 renal
SNB-75 CNS = test system: SNB-75 CNS
MOLT-4 leukemia = test system: MOLT-4 leukemia
ACHN renal = test system: ACHN renal
HCT-15 colon = test system: HCT-15 colon
MDA-N = test system: MDA-N
A549 NSCLC = test system: A549 NSCLC
EKVX NSCLC = test system: EKVX NSCLC
OVCAR-8 ovarian = test system: OVCAR-8 ovarian
U251 CNS = test system: U251 CNS
SK-MEL-5 melanoma = test system: SK-MEL-5 melanoma
SF-268 CNS = test system: SF-268 CNS
OVCAR-5 ovarian = test system: OVCAR-5 ovarian
MDA-MB-231 breast = test system: MDA-MB-231 breast
OVCAR-4 ovarian = test system: OVCAR-4 ovarian
MDA-MB-435 = test system: MDA-MB-435
SK-MEL-28 melanoma = test system: SK-MEL-28 melanoma
NCI-H226 lung = test system: NCI-H226 lung
786-0 renal = test system: 786-0 renal
LOX IMVI melanoma = test system: LOX IMVI melanoma
NCI-H522 lung = test system: NCI-H522 lung
RPMI-8226 leukemia = test system: RPMI-8226 leukemia
HOP-62 NSCLC = test system: HOP-62 NSCLC
BT-549 breast = test system: BT-549 breast
HL-60(TB) leukemia = test system: HL-60(TB) leukemia
M14 melanoma = test system: M14 melanoma
CAKI-1 renal = test system: CAKI-1 renal
SW-620 colon = test system: SW-620 colon
UO-31 renal = test system: UO-31 renal
UACC-257 melanoma = test system: UACC-257 melanoma
T-47D breast = test system: T-47D breast
HT29 colon = test system: HT29 colon
SK-MEL-2 melanoma = test system: SK-MEL-2 melanoma
DU-145 prostate = test system: DU-145 prostate
A498 renal = test system: A498 renal
SF-539 CNS = test system: SF-539 CNS
UACC-62 melanoma = test system: UACC-62 melanoma
NCI-H23 lung = test system: NCI-H23 lung
NCI-H460 lung = test system: NCI-H460 lung

Measured: TGI

COc1cc2c(cc1OC)C1c3ccccc3CCCN1CC2 (centres undefined)
not listed: NCI-H460 lung
> 100 µM: all other assays above

CC(=O)OC1(C)C(=O)OC/C2=C/CN(C)CCC(OC(=O)C(O)(C(C)Cl)CC1C)C2=O (centres undefined)
not listed: MALME-3M melanoma
> 100 µM: all other assays above

Source: PubChem BioAssay (NCI)
